Here are results for 2 compounds from patent US9650371B2, “Sulfur-containing heterocyclic derivative having beta secretase inhibitory activity” (Shionogi & Co., Ltd., priority 2008, dated 2017).

The target in this data set is human ether-a-go-go related gene (hERG) channel (Homo sapiens (Human), UniProt Q12809). Kind of data set: hERG test. The format is cell-based. The following applies: HEK293 cells expressing hERG, whole cell patch clamp, 10 minutes. The text has this: For the purpose of assessing risk of an electrocardiogram QT interval prolongation, effects on delayed rectifier K+ current (IKr), which plays an important role in the ventricular repolarization process, was studied using HEK293 cells expressing human ether-a-go-go related gene (hERG) channel.
After a cell was retained at a membrane potential of −80 mV by whole cell patch clamp method using an automated patch clamp system (PatchXpress 7000A, Axon Instruments Inc.), IKr induced by depolarization pulse stimulation at +50 mV for 2 seconds and, further, repolarization pulse stimulation at −50 mV for 2 seconds was recorded. […] From the recording IKr, an absolute value of the tail peak current was measured based on the current value at the resting membrane potential using an analysis software (DataXpress ver.1, Molecular Devices Corporation). Further, the % inhibition relative to the tail peak current before application of the test substance was calculated, and compared with the vehicle-applied group (0.1% dimethyl sulfoxide solution) to assess influence of the test substance on IKr.
(In general: hERG is a cardiac potassium channel; its block is linked to QT prolongation.)

Each structure is given as a SMILES string.

Chain of human ether-a-go-go related gene (hERG) channel (Q12809 whole entry): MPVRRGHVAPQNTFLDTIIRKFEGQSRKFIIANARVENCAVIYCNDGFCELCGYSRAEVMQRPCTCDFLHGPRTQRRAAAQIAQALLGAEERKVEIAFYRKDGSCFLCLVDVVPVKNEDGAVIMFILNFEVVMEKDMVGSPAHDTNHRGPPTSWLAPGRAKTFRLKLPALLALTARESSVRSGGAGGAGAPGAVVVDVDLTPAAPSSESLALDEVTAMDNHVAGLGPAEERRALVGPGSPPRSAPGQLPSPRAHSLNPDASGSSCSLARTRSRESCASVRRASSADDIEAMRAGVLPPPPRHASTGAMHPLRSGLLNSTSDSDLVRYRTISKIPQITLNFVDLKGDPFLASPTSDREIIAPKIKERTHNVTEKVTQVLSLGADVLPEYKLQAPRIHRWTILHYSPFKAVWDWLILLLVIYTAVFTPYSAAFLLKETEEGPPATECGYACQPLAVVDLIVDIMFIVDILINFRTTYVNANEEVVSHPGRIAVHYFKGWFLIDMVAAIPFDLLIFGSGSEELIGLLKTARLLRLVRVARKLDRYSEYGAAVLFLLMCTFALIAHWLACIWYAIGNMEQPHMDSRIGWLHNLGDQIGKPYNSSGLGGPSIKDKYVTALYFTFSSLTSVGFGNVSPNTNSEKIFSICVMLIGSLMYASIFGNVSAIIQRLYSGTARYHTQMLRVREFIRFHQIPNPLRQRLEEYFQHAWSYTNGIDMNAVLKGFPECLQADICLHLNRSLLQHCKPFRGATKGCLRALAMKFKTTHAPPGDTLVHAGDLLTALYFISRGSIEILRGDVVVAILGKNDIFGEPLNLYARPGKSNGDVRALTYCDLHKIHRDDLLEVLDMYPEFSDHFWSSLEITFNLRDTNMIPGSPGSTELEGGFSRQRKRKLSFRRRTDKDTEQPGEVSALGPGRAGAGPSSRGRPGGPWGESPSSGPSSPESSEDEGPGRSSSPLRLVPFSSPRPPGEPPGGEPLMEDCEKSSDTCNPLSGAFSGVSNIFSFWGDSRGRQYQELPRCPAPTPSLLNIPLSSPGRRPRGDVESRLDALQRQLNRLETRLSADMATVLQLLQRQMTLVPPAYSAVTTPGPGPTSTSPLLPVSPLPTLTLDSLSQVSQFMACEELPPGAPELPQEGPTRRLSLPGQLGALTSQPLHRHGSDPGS

In the case of `CNC(=O)c1ccc(-c2ccc(F)c([C@]3(C)C=CSC(N)=N3)c2)cn1` [Compound 92], the “% inhibition of tail peak current (IKr)” value came to 7.9%.

Turning to `C=C1C[C@@](C)(c2cc(NC(=O)c3cnc(OC)cn3)cnc2C)N=C(N)S1` [Compound 102], the “% inhibition of tail peak current (IKr)” value is listed as 2.3%.
